For 23 compounds, IC50 results are on record in patent US20260317356A1, “SMALL MOLECULE MODULATORS OF OGG1” (AZKARRA THERAPEUTICS, INC., priority 2023, published 2026).

Chain of hOGG1 (O15527 12-323): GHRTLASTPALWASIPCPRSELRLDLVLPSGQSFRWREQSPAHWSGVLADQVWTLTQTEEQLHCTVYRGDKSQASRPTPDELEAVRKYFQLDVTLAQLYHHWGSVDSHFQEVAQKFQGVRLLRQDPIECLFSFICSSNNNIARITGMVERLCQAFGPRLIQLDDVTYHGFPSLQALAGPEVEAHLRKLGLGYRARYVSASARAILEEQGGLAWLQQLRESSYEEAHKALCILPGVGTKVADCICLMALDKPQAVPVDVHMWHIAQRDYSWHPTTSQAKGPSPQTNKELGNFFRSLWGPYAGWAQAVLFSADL

The assay concerns the target hOGG1 (Homo sapiens, UniProt O15527). Put plainly: Biochemical fluorescence assay to measure enzymatic activity of hOGG1 (OGG1/APEX IC50). To be noted: 1 nM OGG1+2 nM APEX+6 nM dsDNA (8-oxo-dG substrate); pH 7.5; RT 40 min; read-out: OGG1/APEX IC50. Further details: Protein His-hOGG1 (12-323) was prepared; His (N); host or cells: E. coli. On the procedure: Biological Example 1: Biochemical Assay to Measure Enzymatic Activity of hOGG1 (OGG1/APEX IC50)
The reported fluorescence-based assay (Donley et al ACS Chem Biol 2015; 10 (10), 2334-2343) was modified to include hAPE1/APEX1 protein. The oligonucleotide substrate with 8-oxo-dG lesion at X was prepared (LGC Biosearch, Petaluma, CA):
Protein His-hOGG1 (12-323) was prepared by Chempartner Corporation via E. coliexpression and purification by Ni-NTA and S200 column to afford 95% purity by SDS-PAGE and SEC-HPLC analysis and hAPE1/APEX1 was purchased (SinoBiological). The assay was run in 384-well plates following the general procedure: (1) compound dilution; (2) addition of hOGG1/APEX1 to compound wells; (3) addition of DNA substrate to compound wells; (4) read Ex520/Em600 (TAMRA) fluorescence signal after 40 minutes; (5) calculate % inhibition/compound concentration; (6) calculate dose-response curve and IC50 value.
• (1) 20 mM of compound solution was prepared in DMSO; • (2) Compounds were diluted to 10 mM in DMSO in ECHO Source plate (Labcyte PP-0200), by mixing […] DMSO; • (3) 4× dilution of compounds, for 10 points, by mixing […] DMSO; and • (4) Dispensed 150 nL compounds to assay plate (Corning 3573) in column 3-22. Dispensed 150 nL DMSO to Min and Max control wells in column 1-2 and column 23-24.
• (1) Assay buffer was prepared (20 mM Tris pH 7.5, 100 mM KCl, 0.1% BSA, 0.01% Tween). • (2) […] buffer was added to Min control wells (Column 1-2). • (3) Enzyme was diluted to 2× with buffer (2 nM OGG1+4 nM APEX1). Dispensed […] (except Min control wells). Shake at 500 rpm at RT for 20 min. • (4) DNA substrate diluted to 2× with buffer (12 nM). Dispensed […]. Final concentration: 1 nM OGG1+2 nM APEX+6 nM dsDNA. Shake at RT for 40 min. • (5) Ex520/Em600 (TAMRA) was read.
• (1) Calculated respective mean of Max and Min control wells. • (2) Converted data to percentage inhibition.
Inhibition (%)=(Max mean−value)/(Max mean−Min mean)×100% • (3) Calculated sigmoidal curve (3-parameter) and IC50 (using GraphPad Prism software).
`C=Cc1ccc(C)c2c1NC(=O)N([C@H]1CC[C@@H](C(=O)Nc3ccc(C)c(OC)c3)CC1)C2` [Example 55, (1s,4s)-N-(3-Methoxy-4-methylphenyl)-4-(5-methyl-2-oxo-8-vinyl-1,2-dihydroquinazolin-3(4H)-yl)cyclohexanecarboxamide]: the IC50 was less than 100 nM.

As for `COc1cc(NC(=O)[C@H]2CC[C@@H](N3Cc4c(ccc(C#N)c4C)NC3=O)CC2)ccc1C` [Example 56, (1s,4s)-4-(6-Cyano-5-methyl-2-oxo-1,2-dihydroquinazolin-3(4H)-yl)-N-(3-methoxy-4-methylphenyl)cyclohexanecarboxamide], the IC50 lay in the range of 100 to 1000 nM.

Turning to `COc1cc(NC(=O)[C@H]2CC[C@@H](N3Cc4c(ccc(CN)c4C)NC3=O)CC2)ccc1C` [Example 57, (1s,4s)-4-(6-(Aminomethyl)-5-methyl-2-oxo-1,2-dihydroquinazolin-3(4H)-yl)-N-(3-methoxy-4-methylphenyl)cyclohexanecarboxamide], the IC50 lay within 1000 to 10000 nM.

Regarding `COc1cc(NC(=O)[C@H]2CC[C@@H](N3Cc4c(ccc(O)c4C)NC3=O)CC2)ccc1C` [Example 60, (1s,4s)-4-(6-Hydroxy-5-methyl-2-oxo-1,2-dihydroquinazolin-3(4H)-yl)-N-(3-methoxy-4-methylphenyl)cyclohexanecarboxamide], the IC50 was less than 100 nM.

Turning to `COc1cc(NC(=O)[C@H]2CC[C@@H](N3Cc4c(C)ccc(O)c4NC3=O)CC2)ccc1C` [Example 61, (1s,4s)-4-(8-hydroxy-5-methyl-2-oxo-1,2-dihydroquinazolin-3(4H)-yl)-N-(3-methoxy-4-methylphenyl)cyclohexanecarboxamide], the IC50 is less than 100 nM.

In the case of `COc1cc(NC(=O)[C@H]2CC[C@@H](N3Cc4c(C)ccc(Br)c4NC3=O)CC2)ccc1C` [Example 62, (1s,4s)-4-(8-Bromo-5-methyl-2-oxo-1,2-dihydroquinazolin-3(4H)-yl)-N-(3-methoxy-4-methylphenyl)cyclohexanecarboxamide], the IC50 was less than 100 nM.

In the case of `COc1cc(NC(=O)[C@H]2CC[C@@H](N3Cc4c(ccc(Br)c4C)NC3=O)CC2)ccc1C` [Example 63, (1s,4s)-4-(6-bromo-5-methyl-2-oxo-1,2-dihydroquinazolin-3(4H)-yl)-N-(3-methoxy-4-methylphenyl)cyclohexanecarboxamide], the IC50 fell in the range of 1000 to 10000 nM.

As to `COc1cc(NC(=O)N2CCC(N3Cc4ccccc4NC3=O)CC2)ccc1C` [Example 64, N-(3-methoxy-4-methylphenyl)-4-(2-oxo-1,2-dihydroquinazolin-3(4H)-yl)piperidine-1-carboxamide], the IC50 lay in the range of 100 to 1000 nM.

Take `COc1cc(NC(=O)[C@@H]2CC[C@H](N3Cc4ccccc4NC3=O)C2)ccc1C` [Example 65, (1R,3S)—N-(3-methoxy-4-methylphenyl)-3-(2-oxo-1,2-dihydroquinazolin-3(4H)-yl)cyclopentanecarboxamide]: the IC50 was 1000 to 10000 nM.

For `COc1cc(NC(=O)[C@H]2CC[C@@H](N3Cc4c(Br)cccc4NC3=O)CC2)ccc1C` [Example 66, (1s,4s)-4-(5-bromo-2-oxo-1,2-dihydroquinazolin-3(4H)-yl)-N-(3-methoxy-4-methylphenyl)cyclohexanecarboxamide], the IC50 lay within 100 to 1000 nM.

Take `COc1cc(NC(=O)[C@H]2CC[C@@H](N3Cc4c(Cl)cccc4NC3=O)CC2)ccc1C` [Example 68, (1s,4s)-4-(5-chloro-2-oxo-1,2-dihydroquinazolin-3(4H)-yl)-N-(3-methoxy-4-methylphenyl)cyclohexanecarboxamide]: the IC50 lay in the range of 100 to 1000 nM.

On to `COc1cc(NC(=O)[C@H]2CC[C@@H](N3Cc4c(C)cccc4NC3=O)CC2)ccc1C` [Example 69, (1s,4s)-N-(3-methoxy-4-methylphenyl)-4-(5-methyl-2-oxo-1,2-dihydroquinazolin-3(4H)-yl)cyclohexanecarboxamide], for which the IC50 was less than 100 nM.

As to `COc1cc(NC(=O)[C@H]2CC[C@@H](N3Cc4c(cccc4C(F)(F)F)NC3=O)CC2)ccc1C` [Example 70, (1s,4s)-N-(3-methoxy-4-methylphenyl)-4-(2-oxo-5-(trifluoromethyl)-1,2-dihydroquinazolin-3(4H)-yl)cyclohexanecarboxamide], the IC50 lay within 100 to 1000 nM.

On to `COc1cc(NC(=O)[C@H]2CC[C@@H](N3Cc4c(cccc4OC)NC3=O)CC2)ccc1C` [Example 71, (1s,4s)-4-(5-methoxy-2-oxo-1,2-dihydroquinazolin-3(4H)-yl)-N-(3-methoxy-4-methylphenyl)cyclohexanecarboxamide], for which the IC50 fell in the range of 1000 to 10000 nM.

For `CCc1cccc2c1CN([C@H]1CC[C@@H](C(=O)Nc3ccc(C)c(OC)c3)CC1)C(=O)N2` [Example 72, (1s,4s)-4-(5-ethyl-2-oxo-1,2-dihydroquinazolin-3(4H)-yl)-N-(3-methoxy-4-methylphenyl)cyclohexanecarboxamide], the IC50 fell in the range of 100 to 1000 nM.

Take `COc1cc(NC(=O)[C@H]2CC[C@@H](N3Cc4c(Cl)cccc4N(C)C3=O)CC2)ccc1C` [Example 73, (1s,4s)-4-(5-chloro-1-methyl-2-oxo-1,2-dihydroquinazolin-3(4H)-yl)-N-(3-methoxy-4-methylphenyl)cyclohexanecarboxamide]: the IC50 was 100 to 1000 nM.

For `COc1cc(NC(=O)[C@H]2CC[C@@H](N3Cc4c(C)cc(Br)cc4NC3=O)CC2)ccc1C` [Example 74, (1s,4s)-4-(7-bromo-5-methyl-2-oxo-1,2-dihydroquinazolin-3(4H)-yl)-N-(3-methoxy-4-methylphenyl)cyclohexanecarboxamide], the IC50 is 100 to 1000 nM.

Take `COc1cc(NC(=O)[C@H]2CC[C@@H](N3Cc4c(F)cccc4NC3=O)CC2)ccc1C` [Example 75, (1s,4s)-4-(5-fluoro-2-oxo-1,2-dihydroquinazolin-3(4H)-yl)-N-(3-methoxy-4-methylphenyl)cyclohexanecarboxamide]: the IC50 lay in the range of 100 to 1000 nM.

`COc1cc(NC(=O)[C@H]2CC[C@@H](N3Cc4c(C)cc(N)cc4NC3=O)CC2)ccc1C` [Example 76, (1s,4s)-4-(7-amino-5-methyl-2-oxo-1,2-dihydroquinazolin-3(4H)-yl)-N-(3-methoxy-4-methylphenyl)cyclohexanecarboxamide]: the IC50 was less than 100 nM.

In the case of `COc1cc(NC(=O)[C@H]2CC[C@@H](N3Cc4c(C)cc(O)cc4NC3=O)CC2)ccc1C` [Example 77, (1s,4s)-4-(7-hydroxy-5-methyl-2-oxo-1,2-dihydroquinazolin-3(4H)-yl)-N-(3-methoxy-4-methylphenyl)cyclohexanecarboxamide], the IC50 was less than 100 nM.

Turning to `COc1cc(NC(=O)[C@H]2CC[C@@H](N3Cc4c(C)cc(C=O)cc4NC3=O)CC2)ccc1C` [Example 78, (1s,4s)-4-(7-formyl-5-methyl-2-oxo-1,2-dihydroquinazolin-3(4H)-yl)-N-(3-methoxy-4-methylphenyl)cyclohexanecarboxamide], the IC50 was less than 100 nM.

In the case of `COc1cc(NC(=O)[C@H]2CC[C@@H](N3Cc4c(C)cc(C(=O)O)cc4NC3=O)CC2)ccc1C` [Example 79, 3-((1s,4s)-4-(3-methoxy-4-methylphenylcarbamoyl)cyclohexyl)-5-methyl-2-oxo-1,2,3,4-tetrahydroquinazoline-7-carboxylic Acid], the IC50 was 100 to 1000 nM.

On to `CNC(=O)c1cc(C)c2c(c1)NC(=O)N([C@H]1CC[C@@H](C(=O)Nc3ccc(C)c(OC)c3)CC1)C2` [Example 80, 3-((1s,4s)-4-(3-methoxy-4-methylphenylcarbamoyl)cyclohexyl)-N,5-dimethyl-2-oxo-1,2,3,4-tetrahydroquinazoline-7-carboxamide], for which the IC50 was less than 100 nM.
